# From US20250347696A1, “SELF-ACTIVATING FÖRSTER RESONANCE ENERGY TRANSFER (saFRET) BIOSENSORS AND METHODS FOR MAKING AND USING THEM” (The Regents of the University of California, priority 2021, published 2025)
# Positions count from the first letter of the chain named. Entries after “also recorded” stand apart in the source; their conditions may differ. Like-named read-outs stand apart in the source and are kept apart here.
# How the values were obtained:
# [1] = target: T1, ZAP70 kinase domain (327-619) (Homo sapiens, UniProt P43403); experiment: ZAP70 saFRET biosensor live-cell FRET imaging in HEK cells; format: cell-based; conditions: TAK-659 25 μM
# T1 construct: The combination of ZAP70 kinase domain (327-619) and a substrate from LATY191; expressed in transfected cells; host or cells: HEK cells
# T1 sequence (P43403 327-619): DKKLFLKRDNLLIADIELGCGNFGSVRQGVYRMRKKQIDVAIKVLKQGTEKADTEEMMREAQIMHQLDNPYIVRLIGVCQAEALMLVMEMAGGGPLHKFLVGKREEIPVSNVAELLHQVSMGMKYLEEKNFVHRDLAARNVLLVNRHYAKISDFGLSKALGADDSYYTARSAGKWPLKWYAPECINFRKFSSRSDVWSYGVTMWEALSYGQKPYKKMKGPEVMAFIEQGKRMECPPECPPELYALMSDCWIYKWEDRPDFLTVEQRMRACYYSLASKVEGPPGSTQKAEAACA
# Text: To extend FRET-seq as a general platform to optimize different kinase FRET biosensors in mammalian cells, we further applied this technology to improve the ZAP70 kinase FRET biosensor. […] Similar to the Fyn saFRET biosensor, the FRET change of ZAP70 saFRET biosensor was dominated by the active kinase domain, as evidenced by the observations that the TAK-659-induced dynamic changes (FIG. 3 b,c) and phosphorylation (Supplementary FIG. 5a, or FIG. 11A) were abolished when the kinase domain was replaced by its kinase-dead version (K369A)^41.
# Using the established platform for library screening and sequencing, the ZAP70 biosensor candidates selected via the four-dimensional plot were further ranked by the product of Ev (KAH) and Ev (KDL) (FIG. 3D-E). […] The dynamic range of FRET ratio of the biosensors containing […] (SEQ ID NO:113) or […] (SEQ ID NO:114) increased approximately 50% comparing to the parental one, when transiently expressed in HEK cells (FIG. 3G-H). As such, our FRET-seq platform can serve as a general high-throughput approach to engineer FRET biosensor from libraries and develop sensitive kinase biosensors. […]
# To increase the specificity of the selected substrates, library with mutated kinase were included. […] The variants which satisfied all conditions were selected (FIG. 3D, Example 1), and their FRET ratio change upon TAK-659 treatment were measured by fluorescence microscope. […]
# [2] = target: T2, ZAP70 biosensor with kinase-dead domain (saFRETkd) (Homo sapiens, UniProt P43403, K369A); experiment: ZAP70 saFRET biosensor with kinase-dead domain (saFRETkd), control / counter screening; format: cell-based; conditions: for TAK-659-induced FRET response of ZAP70 saFRET biosensor with kinase-dead domain: kinase-dead (K369A) domain, HEK cells
# T2 construct: kinase 327-619 (both KA and KM) was chosen for generating the Zap70 biosensor substrate libraries; expressed in transfected cells; host or cells: HEK cells
# T2 sequence (P43403 327-619 K369A): T1 sequence (P43403 327-619) with K43A
# Method: (§1) We first screened a 96-member kinase inhibitor library to identify efficient inhibitors of ZAP70 kinase. […] After 40 minutes of incubation with inhibitors, the cells were imaged, and the FRET ratio changes of individual inhibitors compared to the solvent control were calculated to identify promising candidates after this primary endpoint screening (FIG. 5B-D). We further exploited a control biosensor with a kinase-dead domain (saFRETkd) for counter screening to eliminate false-positive hits due to auto-fluorescence or other non-specific effects^48.
# (§2) Firstly, we transfected HEK293 cells with optimized saFRET biosensor and established a stable cell line. […] HEK293 stable cell line was then cultured in 96 glass bottom wells for approximately 24 hours and then should be ready for high throughput screening (see FIG. 5A, Example 1). We tested this concept by screening an in house kinase inhibitor library (Cayman chemical inc.) and screened a […] kinase inhibitor library to identify efficient inhibitors of ZAP70 kinase. […] After 40 minutes of incubation with inhibitors, the cells were imaged, and the FRET ratio changes of individual inhibitors compared to the solvent control were calculated to identify promising candidates after this primary endpoint screening (see FIG. 5B-G, Example 1). We further exploited a control biosensor with a mutated-kinase dead domain (saFRETkd) for counter screening to eliminate false-positive hits due to auto-fluorescence or other non-specific effects (Simeonov and Davis 2004).
# ZAP70 kinase = target: T3, ZAP70 kinase (Homo sapiens, UniProt P43403); conditions: for inhibition of ZAP70 activity (FRET ratio change compared to solvent control): 10 μM, 40 minutes of incubation
# T3 sequence (P43403 327-619): T1 sequence (P43403 327-619)
# Method: as §1
# • a, Schematics of the high throughput drug screening platform. First, the cells cultured in 96-well glass bottom plate were treated either with DMSO or inhibitors from the kinase inhibitor library. After 40 minutes of incubation, the cells were imaged, and the FRET ratio change compared to the control cell was calculated. […] Scale bars, 10 μm. • c, Summary of screening results. […] Error bars, mean±SD. • e, Counter screening using a mutant biosensor with a kinase-dead domain to subtract the noise engendered from non-specific fluorescence. […] Error bars, mean±SEM.
# as §2
# pZAP70 (Y493) [3] = experiment: pZAP70 (Y493) in P116-ZAP70 R360P cells; format: cell-based, human; conditions: inhibitor pre-treatment
# Text: (§3) To examine the efficacy of staurosporine and AZD7762 in inhibiting pathological T cell activation, we used a disease model where T cell activation is mediated by ZAP70-R360P mutation, a main cause of a severe human autoimmune syndrome^4. We introduced wild type ZAP70 or the R360P-mutant of ZAP70 into ZAP70-deficient P116 T cells (FIG. 6G). ZAP70-R360P led to enhanced T cell auto-activation compared to wild type ZAP70 (FIG. 6H).
# (§4) • a, Experimental scheme and timeline for experiments in b-d. The Jurkat T cells were pre-treated with inhibitors for 30 minutes before anti-TCR stimulation by anti-CD3/CD28 antibodies for 5 minutes. • b, Immunostaining images of pLAT (Y191) in Jurkat T cells with different inhibitor pre-treatments. Scale bars, 10 μm. • c, Quantification of pLAT (Y191) intensity of single cells in different groups. […] Error bars, mean±SD. • d, Quantification of pZAP70 (Y493) intensity of single cells in different groups. […] P116 cells with similar ZAP70-WT or ZAP70-R360P expressions were sorted and isolated for further analysis based on YPet intensity. • h, CD69 expression in P116 cells with or without the expression of ZAP70 (WT) and its mutant (R360P). • i, Quantification of pZAP70 (Y493) intensity of single cells in different P116 groups. […] Scale bars, 10 μm. • k, Quantification of pLAT (Y191) intensity of single cells in P116-ZAP70 R360P cells with different inhibitor pre-treatment. […]
# pLAT (Y191) = pLAT (Y191) in P116-ZAP70 R360P cells; format: cell-based, human; conditions: inhibitor pre-treatment
# Text: as §3, §4
# CD69 expression [4] = experiment: CD69 expression by flow cytometry in T cells after anti-TCR stimulation; format: cell-based, human; conditions: inhibitor pre-treatment
# Method: (§5) We tested the phosphorylation of LAT, a downstream substrate of ZAP70 kinase, and the activation of T cells with the top two identified inhibitors, staurosporine and AZD7762.
# (§6) • a, Experimental scheme and timeline for experiments in b-d. The Jurkat T cells were pre-treated with inhibitors for 30 minutes before anti-TCR stimulation by anti-CD3/CD28 antibodies for 5 minutes. • b, Immunostaining images of pLAT (Y191) in Jurkat T cells with different inhibitor pre-treatments. Scale bars, 10 μm. • c, Quantification of pLAT (Y191) intensity of single cells in different groups. (n>150 for each group, One-way ANOVA, ****P<0.0001). Error bars, mean±SD. • d, Quantification of pZAP70 (Y493) intensity of single cells in different groups. (n>200 for each group, One-way ANOVA, ****P<0.0001). […] P116 cells with similar ZAP70-WT or ZAP70-R360P expressions were sorted and isolated for further analysis based on YPet intensity. • h, CD69 expression in P116 cells with or without the expression of ZAP70 (WT) and its mutant (R360P). • i, Quantification of pZAP70 (Y493) intensity of single cells in different P116 groups. […] Scale bars, 10 μm. • k, Quantification of pLAT (Y191) intensity of single cells in P116-ZAP70 R360P cells with different inhibitor pre-treatment. […]
# [5] = tested on: phosphorylated LAT (Y191); experiment: pLAT (Y191) immunostaining in Jurkat T cells after anti-CD3/CD28 stimulation; format: cell-based, human; conditions: inhibitor pre-treatment 30 minutes, anti-CD3/CD28 5 minutes
# Method: as §5, §6
# pZAP70 (Y493) [6] = experiment: pZAP70 (Y493) immunostaining in Jurkat T cells after anti-CD3/CD28 stimulation; format: cell-based, human; conditions: inhibitor pre-treatment 30 minutes, anti-CD3/CD28 5 minutes
# Method: as §5, §6
# CD69 expression [7] = experiment: CD69 expression by flow cytometry in P116-ZAP70-R360P cells; format: cell-based, human; conditions: inhibitor pre-treatment
# Text: as §3, §4
SMILES,FRET ratio response of ZAP70 saFRET biosensor (active kinase domain) to inhibitor [1],phosphorylation of ZAP70 (pZAP70 (Y493) [3]),phosphorylation of LAT (Y191) (pLAT (Y191)),expression of CD69 (CD69 expression [4]),phosphorylated LAT (Y191) [5],phosphorylated ZAP70 (Y493) (pZAP70 (Y493) [6]),activation of T cells marked by CD69 (CD69 expression [7]),inhibition of ZAP70 activity (FRET ratio change compared to solvent control) (ZAP70 kinase),also measured
CC(C)(C)n1nc(-c2ccc(Cl)cc2)c2c(N)ncnc21 [PP2],not,,,,,,,,
Cn1cc(-c2nc(N[C@@H]3CCCC[C@@H]3N)c(F)c3c2C(=O)NC3)cn1 [TAK-659],specifically responded; also recorded: significant FRET ratio change,,,,,,,,"TAK-659-induced FRET response of ZAP70 saFRET biosensor with kinase-dead domain [2]: abolished; also recorded: did not show any response; TAK-659-induced FRET response of ZAP70 saFRET biosensor with kinase-dead domain ([2]; listed as TAK659): no response; inhibition of ZAP70 activity (FRET ratio change compared to solvent control) (ZAP70 kinase; listed as TAK659): could not reduce the FRET ratio significantly; average FRET ratio reduction (ZAP70 kinase; 25 μM, stable HEK cell line, ZAP70 saFRET biosensor): approximately 25%"
CN[C@@H]1C[C@H]2O[C@@](C)([C@@H]1OC)n1c3ccccc3c3c4c(c5c6ccccc6n2c5c31)C(=O)NC4 [Staurosporine],,significantly inhibited,significantly inhibited,suppressed,Significant reductions,Significant reductions,significantly inhibited,effectively inhibit,
COc1ccc2cc(-c3nc(-c4ccc([S+](C)[O-])cc4)[nH]c3-c3ccncc3)ccc2c1 (stereo not shown) [Tie2 kinase inhibitor],,,,,,,,effectively inhibit,
Cc1[nH]c(/C=C2\C(=O)Nc3ccc(S(=O)(=O)Cc4c(Cl)cccc4Cl)cc32)c(C)c1C(=O)N1CCC[C@@H]1CN1CCCC1 [PHA665752],,,,,,,,,"FRET ratio change with saFRETkd in counter screening ([2]; 10 μM library inhibitors, kinase-dead biosensor): nonspecific reduction of FRET ratio"
NC(=O)Nc1cc(-c2cccc(F)c2)sc1C(=O)N[C@H]1CCCNC1 [AZD7762],,significantly inhibited,significantly inhibited,suppressed,Significant reductions,Significant reductions,significantly inhibited,effectively inhibit,
